# Laboratory results published in patent US11395867B2, “Degradable removable implant for the sustained release of an active compound” (Janssen Sciences Ireland Unlimited Company, priority 2009, dated 2022).
# Several values for one entry are separate records, joined by “and”; a condition that tells them apart may be missing. Equal entries are not always repeated.
# Key:
# [1] = In vivo testing of electrostatically spun tube containing two sets of microparticles, plasma concentrations; design: species or system Sprague-Dawley rats; conditions: rat, subcutaneous electrospun tube implant, TMC278 139 mg/kg, compound 1 64 mg/kg, individual animals 1-4
# Experimental: Tubes were electrostatically spun from a 100 mg/ml polydioxanone (IVHFIP=1.99 dl/g) hexafluoroisopropanol solution. A 4 mm mandrel was used to provide a consistent inner diameter of 4 mm. The rotational speed of the mandrel was 400 rpm, the charging voltage range was 20/−10 kV, and the pump flow rate was 10 ml/hour. The resulting wall thickness was 500 microns. Fiber diameters were 1-2 microns and the average pore size formed from the network of fibers was 20 microns as determined by Scanning Electron Microscopy.
# The microparticles were prepared by the spinning disc method using a polymer/acetone solution with a concentration ranging from 3-4% (w/w). Two sets of microparticles were prepared. The target composition of one set was 70% (w/w) TMC278 and 30% (w/w) PLGA 50/50 (Lakeshore Biomaterials IVHFIP=0.79 dl/g). The target composition of the other set of microparticles was 70% (w/w) of compound 1 (=compound 14 of WO01/25240) and 30% (w/w) PLGA 50/50 (Lakeshore Biomaterials IVHFIP=0.18 dl/g). This compound 1 has the following structure and will be referred to hereinafter as compound 1:
# Approximately 133 mg of the microparticle mixture was introduced into the electrostatically prepared tubes using a spatula.
# The prepared tubes were implanted into the subcutaneous space on the back of four male Sprague-Dawley rats weighing between 250-350 grams. The dose of TMC278 was 139 mg/kg and the dose of compound 1 was 64 mg/kg. The tail vein was sampled at pre-determined time points. Blood samples were immediately centrifuged to extract the plasma, plasma was analyzed for compound 1 and TMC278 by LC/MS/MS. The lower limit of quantitation was 0.4 ng/ml and 2 ng/ml for TMC278 and compound 1, respectively.
# [2] = In vivo testing of laser drilled melt extruded tube containing two sets of microparticles, plasma concentrations; conditions: rat, subcutaneous laser drilled extruded tube implant, TMC278 139 mg/kg, compound 1 64 mg/kg, individual animals 1-4
# Experimental: Tubes with inner diameter of 4.5 mm were extruded from polydioxanone (IVHFIP=1.99 dl/g) using a ¾ inch single screw extruder fitted with a tube die. The dimensions of the tube were monitored using an in-line laser diameter measuring system and maintained using a puller. Following the extrusion the tubes were laser drilled. In preparation for the laser drilling a mask design was prepared that located the holes 260 microns apart from one another. Scanning electron microscopy was used to size the inner and outer diameter of the holes. […] The microparticles were prepared as described in Example 9. Approximately 133 mg of the microparticle mixture was introduced into the tubes.
# The prepared tubes were implanted into the subcutaneous space on the back of four male Sprague-Dawley rats weighing between 250-350 grams. The dose of TMC278 was 139 mg/kg and the dose of compound 1 was 64 mg/kg. The tail vein was sampled at pre-determined time points. Blood samples were immediately centrifuged to extract the plasma, and plasma was analyzed for compound 1 and TMC278 by LC/MS/MS. The lower limit of quantitation for TMC278 and compound 1 was 0.4 ng/ml and 2.0 ng/ml, respectively.
# [3] = In vivo testing of laser drilled melt extruded tube containing two sets of microparticles formulated with F108, plasma concentrations; design: species or system Sprague-Dawley rats; conditions: rat, subcutaneous laser drilled extruded tube implant, TMC278 109 mg/kg, compound 1 78 mg/kg, individual animals 1-4
# Experimental: The laser drilled melt extruded tube was prepared as described above in example 10. The microparticles were prepared by the spinning disc method using a 3% (w/w) polymer/acetone solution. Two sets of microparticles were prepared. The target composition of one set was 70% (w/w) TMC278, 20% (w/w) PLGA 50/50 (Lakeshore Biomaterials IVHFIP=0.79 dl/g), and 10% (w/w) F108 (BASF). The target composition of the other set of microparticles was 70% (w/w) compound 1, 20% (w/w) PLGA 50/50 (Lakeshore Biomaterials IVHFIP=0.18 dl/g), and 10% (w/w) F108. The F108 was added to the polymer solution.
# The size range of the microparticles was determined by randomly selecting a sample of microparticles and placing them on the stage of an optical microscope and using a ruler to measure the various sizes of the microparticles in the randomly selected sample. The size range of the TMC278 and compound 1 microparticles was 10-100 microns and 20-100 microns, respectively. Microparticles were mixed as described in example 9. Approximately 133 mg of the microparticle mixture was introduced into tubes using a spatula to transfer the contents.
# The prepared tubes were implanted into the subcutaneous space on the back of four male Sprague-Dawley rats weighing between 250-350 grams. The dose of TMC278 and compound 1 was 109 mg/kg and 78 mg/kg, respectively. The tail vein was sampled at pre-determined time points. Blood samples were immediately centrifuged to extract the plasma, plasma was analyzed for compound 1 and TMC278 by LC/MS/MS. The lower limit of quantitation for TMC278 and compound 1 was 0.4 ng/ml and 2 ng/ml, respectively.
smiles,measurement,setting,value
CC(C)CN(C[C@@H](O)[C@H](Cc1ccccc1)NC(=O)O[C@H]1CO[C@H]2OCC[C@H]21)S(=O)(=O)c1ccc2c(c1)OCO2 [compound 1],plasma concentration,[1]; 3 hour,2.37 ng/mL and 4.08 ng/mL and 4.46 ng/mL
same,plasma concentration,[1]; 1 day,12.6 ng/mL and 9.95 ng/mL and 10.5 ng/mL
same,plasma concentration,[1]; 3 day,15.1 ng/mL and 14.2 ng/mL and 15.9 ng/mL
same,plasma concentration,[1]; 7 day,13.6 ng/mL and 13.2 ng/mL and 13.0 ng/mL
same,plasma concentration,[1]; 14 day,7.17 ng/mL and 12.7 ng/mL and 16.6 ng/mL and 9.89 ng/mL
same,plasma concentration,[1]; 28 day,6.07 ng/mL and 8.86 ng/mL and 12.4 ng/mL and 10.5 ng/mL
same,plasma concentration,[1]; 35 day,5.75 ng/mL and 12.0 ng/mL and 20.0 ng/mL and 11.6 ng/mL
same,concentration at 3 h,"[1]; male, Sprague-Dawley, plasma, subcutaneous, 3 hour",3.93 ng/mL
same,concentration at 1 day,"[1]; male, Sprague-Dawley, plasma, subcutaneous, 1 day",6.39 ng/mL
same,concentration at 3 day,"[1]; male, Sprague-Dawley, plasma, subcutaneous, 3 day",10 ng/mL
same,concentration at 7 day,"[1]; male, Sprague-Dawley, plasma, subcutaneous, 7 day",9.95 ng/mL
same,plasma concentration,[2]; 3 hour,2.88 ng/mL and 16.4 ng/mL and 27.0 ng/mL and 16.5 ng/mL
same,plasma concentration,[2]; 1 day,<2 ng/mL and 4.20 ng/mL and 9.25 ng/mL and 3.71 ng/mL
same,plasma concentration,[2]; 3 day,<2 ng/ml (2×) and 3.35 ng/ml and 6.06 ng/ml
same,plasma concentration,[2]; 7 day,3.44 ng/mL and 3.13 ng/mL and <2 ng/mL
same,plasma concentration,[2]; 14 day,2.70 ng/mL and 2.26 ng/mL and 3.66 ng/mL
same,plasma concentration,[2]; 28 day,<2 ng/mL and 4.32 ng/mL and 13.0 ng/mL and 4.30 ng/mL
same,plasma concentration,[2]; 35 day,<2 ng/mL and 3.56 ng/mL and 13.0 ng/mL and 2.57 ng/mL
same,concentration at 7 day,"[2]; male, in vivo, 7 day",< 2 ng/mL
same,concentration at 14 day,"[2]; male, in vivo, 14 day",< 2 ng/mL
same,plasma concentration,[3]; 3 hour,59.1 ng/mL and 26.9 ng/mL and 39.2 ng/mL and 17.3 ng/mL
same,plasma concentration,[3]; 1 day,6.13 ng/mL and 2.54 ng/mL and 4.36 ng/mL and 2.98 ng/mL
same,plasma concentration,[3]; 3 day,<2 ng/mL
same,plasma concentration,[3]; 7 day,2.89 ng/ml and <2 ng/ml (2×)
same,plasma concentration,[3]; 14 day,8.25 ng/ml and <2 ng/ml (2×) and 6.27 ng/ml
same,plasma concentration,[3]; 28 day,22.1 ng/mL and 6.03 ng/mL and 12.3 ng/mL and 16.3 ng/mL
same,plasma concentration,[3]; 35 day,13.1 ng/mL and 7.25 ng/mL and 10.7 ng/mL and 15.4 ng/mL
same,concentration at 3 day,"[3]; male, Sprague-Dawley, plasma, 3 day",3.36 ng/mL
same,concentration at 7 day,"[3]; male, Sprague-Dawley, plasma, 7 day",< 2 ng/mL
